Assay results from US10081609B2, “Compounds for inducing proliferation and differentiation of cells, and methods of use thereof” (The Broad Institute, Inc., priority 2013, dated 2018).

Legend:
iHeps [1] = assay: CYP450 activities of treated iHeps through isoenzyme-specific probes; type: cell-based, human
Experimental: (§1) Culture media were collected and frozen at −20° C. until analysis. Albumin content was measured through sandwich ELISA assays (MP Biomedicals, Fitzgerald, Bethyl Laboratories) using horseradish peroxidase detection and 3,3′,5,5′-tetramethylbenzidine (TMB, Fitzgerald Industries) as a substrate. Urea concentration was determined colorimetrically using diacetylmonoxime with acid and heat (Stanbio Labs). To quantify CYP450 activity, at 48 hours after small molecule exposure, cultures were incubated with substrates (coumarin from Sigma for CYP2A6, luciferin-IPA from Promega for CYP3A4) for 4 hours at 37° C. Incubation medium was collected and metabolite concentration quantified via luminescence, or fluorescence after hydrolization of potential metabolite conjugates by β-glucuronidase/arylsulfatase (Roche, Ind.).
The ability of compounds of the invention to affect the differentiation and maturation of iHeps was tested. Undifferentiated iPS cells were cultured on Matrigel, supported by primary mouse embryonic fibroblasts. […]
To confirm the staining results, secreted levels of albumin and AFP via ELISA, and CYP450 activities through isoenzyme-specific probes that are either fluorescent or luminescent were measured. […]

[2] = system: human primary hepatocytes; assay: Expansion of human primary hepatocytes on growth-arrested J2-3T3 feeder layer in 12-well plates (imaging, cell counting, FACS, biochemical assays); type: cell-based; conditions: 20 μM on days 1 and 5, 7 days culture
Experimental: as §1
To characterize the effects of FPH1 and FPH2 outside of the screening platform, human primary hepatocytes were seeded at a density of ˜20,000 cells/cm^2, into standard 12-well tissue culture plates on top of a feeder layer of growth-arrested J2-3T3s. These cells were cultured for 7 days, during which time a single compound/FPH was supplemented into the media on days 1 and 5 at a concentration of 20 μM. Treated hepatocyte colonies increased in size over time, with more hepatocytes populating each colony (FIG. 2D, 2E).
To characterize the degree of proliferation and to obtain a doubling time, cells were counted and fluorescence-activated cell sorting (FACS) was performed (FIG. 2H). For cell counting, FPH-treated cells were trypsinized after seven days in culture. The number of cells was quantified using an automated cell counter. The number of hepatocytes was obtained by subtracting the number of fibroblasts from the total number of cells found in the corresponding co-culture. For FACS analysis, growth arrested J2-3T3s were labeled with CM-DiI prior to initiation of co-culture so that hepatocytes can be identified via negative selection. To enable cell counting during FACS, each sample was supplemented with fluorescent counting beads. […] Over 7 days, FPH1 induced hepatocyte doublings at a rate that is consistent with reported liver regeneration kinetics in vivo.
To assess the phenotype of the treated hepatocytes, imaging, biochemical analyses and gene expression profiling were performed. […] Albumin secretion and urea synthesis, a surrogate marker of nitrogen metabolism, were both stable throughout FPH treatment (FIG. 3A top and middle). Metabolic functions were assessed via examinations of cytochrome P450 (CYP450) activity and canalicular transport. […] Gene expression profiling confirmed that there are no significant differences between FPH-treated and untreated hepatocytes (FIG. 3C).

iHeps [3] = assay: Differentiation of human iPS-derived hepatocytes (iHeps): morphology and immunofluorescent staining; type: cell-based
Experimental: The ability of compounds of the invention to affect the differentiation and maturation of iHeps was tested. Undifferentiated iPS cells were cultured on Matrigel, supported by primary mouse embryonic fibroblasts. Once confluent, iPS cells were transitioned to differentiation media, with sequential addition of growth factors (Activin A, BMP-4, bFGF, HGF, and OSM) to guide differentiation, first into endoderm, then into hepatic progenitor cells and finally into iHeps. Compound treatment started on day 21 post initiation of differentiation and acted over a period of 9 days. FH1 and FPH2 were used to treat iHeps. FH1 doubled albumin secretion during primary screening (FIG. 4A left) in a dose-responsive manner (FIG. 4A right).
To examine the effects of FH1 and FPH2 at the protein level, AFP, albumin and CYP3A4 levels weew visualized via immunofluorescent staining. […] This is in agreement with primary screening results as well as earlier morphological findings. Untreated cultures had islands that double stain for albumin and the fetal marker AFP, with very little presence of the mature marker CYP3A4.

[4] = system: iPS-derived endothelial cells; assay: Differentiation of iPS-derived endothelial cells (nitric oxide); type: cell-based
Experimental: Cells were assayed for nitric oxide (NO), a mature marker for endothelial cells. CB=FPH2, M=FH1, E=PH1, while Null and DMSO are control runs with no additive and vehicle only, respectively.

[5] = system: human primary hepatocytes; assay: High-throughput liver platform, primary screening: secreted albumin by competitive ELISA; type: cell-based
Description: In order to evaluate the phenotype of treated cells, a secondary readout was included to quantify hepatocyte functions via competitive ELISA. This biochemical assay measured the level of secreted albumin as a marker for protein synthesis functions of the cultured hepatocytes (FIG. 1A bottom).
FIG. 1B top summarizes the workflow of the screen. Primary screening was done on human primary hepatocytes, preconditioned for seven days by non-parenchymal cells in the screening platform. Upon stabilization in vitro, cultures were treated with the chemical library for 48 hours. All compounds were tested in duplicates, at a single concentration of 15 μM. This single concentration was selected via a pilot screen of ˜2,000 small molecules. All 12,480 small molecules were initially tested on a single donor of cryopreserved hepatocytes (donor a) in order to eliminate noise from donor-to-donor variability. Following compound treatment, media supernatants were collected for functional analyses via ELISA and cultures were fixed in 4% paraformaldehyde for proliferation analyses via imaging.

CaMK1 δ = CaMK1 δ (Homo sapiens, UniProt Q8IU85); assay: Kinome analysis (panel of kinases); type: biochemical
Experimental: (§2) Selected compounds of the invention (FPH1 and FPH2; both at 1 μM concentration) were screened against a panel of kinases (FIG. 17).

PDGFRβ = PDGFRβ (Homo sapiens, UniProt P09619); assay: Kinome analysis (panel of kinases); type: biochemical
Experimental: as §2

NEK2 = NEK2 (Homo sapiens, UniProt P51955); assay: Kinome analysis (panel of kinases); type: biochemical
Experimental: as §2

RSK3 = RSK3 (Homo sapiens, UniProt Q15349); assay: Kinome analysis (panel of kinases); type: biochemical
Experimental: as §2

RSK4 = RSK4 (Homo sapiens, UniProt Q9UK32); assay: Kinome analysis (panel of kinases); type: biochemical
Experimental: as §2

PI3KC2 α = PI3KC2 α (Homo sapiens, UniProt O00443); assay: Kinome analysis (panel of kinases); type: biochemical
Experimental: as §2

CLK1 = CLK1 (Homo sapiens, UniProt P49759); assay: Kinome analysis (panel of kinases); type: biochemical
Experimental: as §2

CK1 γ2 = CK1 γ2 (Homo sapiens, UniProt P78368); assay: Kinome analysis (panel of kinases); type: biochemical
Experimental: as §2

Sequence of NEK2 (P51955 whole entry, species assumed): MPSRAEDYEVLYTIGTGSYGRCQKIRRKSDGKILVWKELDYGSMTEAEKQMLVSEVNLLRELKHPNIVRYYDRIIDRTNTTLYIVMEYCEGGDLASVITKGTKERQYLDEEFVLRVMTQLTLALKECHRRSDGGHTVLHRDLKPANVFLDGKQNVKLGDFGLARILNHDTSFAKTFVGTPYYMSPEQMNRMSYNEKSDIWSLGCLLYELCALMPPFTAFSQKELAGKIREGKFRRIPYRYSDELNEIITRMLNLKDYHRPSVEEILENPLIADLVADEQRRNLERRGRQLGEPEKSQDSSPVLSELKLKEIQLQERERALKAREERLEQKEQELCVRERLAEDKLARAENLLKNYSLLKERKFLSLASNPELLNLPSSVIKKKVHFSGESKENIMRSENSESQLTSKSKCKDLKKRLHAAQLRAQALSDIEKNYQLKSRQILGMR
Sequence of RSK3 (Q15349 whole entry, species assumed): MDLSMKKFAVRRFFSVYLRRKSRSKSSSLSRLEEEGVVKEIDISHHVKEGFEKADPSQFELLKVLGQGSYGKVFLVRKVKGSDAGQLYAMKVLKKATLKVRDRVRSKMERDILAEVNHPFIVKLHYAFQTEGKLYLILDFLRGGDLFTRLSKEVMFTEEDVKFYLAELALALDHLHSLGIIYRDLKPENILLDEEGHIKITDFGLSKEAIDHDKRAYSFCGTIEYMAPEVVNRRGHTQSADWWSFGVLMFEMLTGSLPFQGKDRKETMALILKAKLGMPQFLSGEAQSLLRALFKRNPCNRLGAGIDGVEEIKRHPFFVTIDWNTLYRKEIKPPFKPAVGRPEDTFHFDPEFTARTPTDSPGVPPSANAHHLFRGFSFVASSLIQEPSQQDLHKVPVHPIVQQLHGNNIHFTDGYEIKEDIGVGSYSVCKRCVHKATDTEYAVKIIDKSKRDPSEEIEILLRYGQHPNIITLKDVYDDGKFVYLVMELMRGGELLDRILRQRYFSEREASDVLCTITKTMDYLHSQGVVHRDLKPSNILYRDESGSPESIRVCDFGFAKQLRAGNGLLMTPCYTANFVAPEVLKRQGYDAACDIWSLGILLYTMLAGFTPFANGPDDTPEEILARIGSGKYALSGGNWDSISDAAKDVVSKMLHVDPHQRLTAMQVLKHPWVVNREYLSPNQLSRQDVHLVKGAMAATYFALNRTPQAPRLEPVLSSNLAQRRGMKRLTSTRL
Sequence of CLK1 (P49759 whole entry): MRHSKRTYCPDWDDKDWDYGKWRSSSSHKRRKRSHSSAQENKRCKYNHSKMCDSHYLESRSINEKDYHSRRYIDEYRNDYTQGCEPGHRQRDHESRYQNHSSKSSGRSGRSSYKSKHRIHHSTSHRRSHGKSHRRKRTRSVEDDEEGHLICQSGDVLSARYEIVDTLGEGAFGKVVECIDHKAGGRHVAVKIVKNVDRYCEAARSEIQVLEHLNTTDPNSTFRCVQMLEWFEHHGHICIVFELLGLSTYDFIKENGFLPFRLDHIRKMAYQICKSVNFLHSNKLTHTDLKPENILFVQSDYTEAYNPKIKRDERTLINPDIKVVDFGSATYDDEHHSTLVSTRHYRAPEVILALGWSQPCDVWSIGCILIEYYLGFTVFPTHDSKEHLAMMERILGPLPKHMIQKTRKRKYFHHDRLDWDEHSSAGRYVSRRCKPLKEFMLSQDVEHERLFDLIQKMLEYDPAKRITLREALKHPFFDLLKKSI
Sequence of PDGFRβ (P09619 33-1106, species assumed): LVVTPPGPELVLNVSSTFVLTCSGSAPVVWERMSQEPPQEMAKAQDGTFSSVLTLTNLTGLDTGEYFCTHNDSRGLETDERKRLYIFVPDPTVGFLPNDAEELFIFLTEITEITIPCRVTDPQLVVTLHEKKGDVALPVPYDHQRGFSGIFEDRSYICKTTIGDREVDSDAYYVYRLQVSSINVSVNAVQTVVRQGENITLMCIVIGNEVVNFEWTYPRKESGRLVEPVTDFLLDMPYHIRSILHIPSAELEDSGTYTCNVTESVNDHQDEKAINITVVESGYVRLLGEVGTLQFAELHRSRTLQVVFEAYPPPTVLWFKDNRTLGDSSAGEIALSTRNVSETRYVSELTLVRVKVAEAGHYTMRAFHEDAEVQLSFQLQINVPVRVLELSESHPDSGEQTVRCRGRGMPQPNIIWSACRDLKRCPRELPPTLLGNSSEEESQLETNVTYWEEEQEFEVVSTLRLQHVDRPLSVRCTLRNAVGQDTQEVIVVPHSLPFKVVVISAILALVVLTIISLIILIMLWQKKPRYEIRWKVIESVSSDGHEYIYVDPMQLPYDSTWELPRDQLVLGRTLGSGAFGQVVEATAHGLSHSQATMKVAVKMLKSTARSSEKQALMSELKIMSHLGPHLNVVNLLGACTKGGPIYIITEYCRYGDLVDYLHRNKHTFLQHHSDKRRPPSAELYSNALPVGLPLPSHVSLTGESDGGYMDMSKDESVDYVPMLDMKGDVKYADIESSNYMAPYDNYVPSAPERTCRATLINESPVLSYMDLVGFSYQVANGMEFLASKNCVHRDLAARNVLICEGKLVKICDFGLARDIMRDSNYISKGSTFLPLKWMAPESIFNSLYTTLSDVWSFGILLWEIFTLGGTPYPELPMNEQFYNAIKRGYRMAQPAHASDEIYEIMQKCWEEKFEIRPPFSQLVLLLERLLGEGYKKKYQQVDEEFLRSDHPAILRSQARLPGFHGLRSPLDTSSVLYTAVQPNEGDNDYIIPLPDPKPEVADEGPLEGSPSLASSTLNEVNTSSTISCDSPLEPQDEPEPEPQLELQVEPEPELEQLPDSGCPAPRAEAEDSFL
Sequence of PI3KC2 α (O00443 whole entry, species assumed): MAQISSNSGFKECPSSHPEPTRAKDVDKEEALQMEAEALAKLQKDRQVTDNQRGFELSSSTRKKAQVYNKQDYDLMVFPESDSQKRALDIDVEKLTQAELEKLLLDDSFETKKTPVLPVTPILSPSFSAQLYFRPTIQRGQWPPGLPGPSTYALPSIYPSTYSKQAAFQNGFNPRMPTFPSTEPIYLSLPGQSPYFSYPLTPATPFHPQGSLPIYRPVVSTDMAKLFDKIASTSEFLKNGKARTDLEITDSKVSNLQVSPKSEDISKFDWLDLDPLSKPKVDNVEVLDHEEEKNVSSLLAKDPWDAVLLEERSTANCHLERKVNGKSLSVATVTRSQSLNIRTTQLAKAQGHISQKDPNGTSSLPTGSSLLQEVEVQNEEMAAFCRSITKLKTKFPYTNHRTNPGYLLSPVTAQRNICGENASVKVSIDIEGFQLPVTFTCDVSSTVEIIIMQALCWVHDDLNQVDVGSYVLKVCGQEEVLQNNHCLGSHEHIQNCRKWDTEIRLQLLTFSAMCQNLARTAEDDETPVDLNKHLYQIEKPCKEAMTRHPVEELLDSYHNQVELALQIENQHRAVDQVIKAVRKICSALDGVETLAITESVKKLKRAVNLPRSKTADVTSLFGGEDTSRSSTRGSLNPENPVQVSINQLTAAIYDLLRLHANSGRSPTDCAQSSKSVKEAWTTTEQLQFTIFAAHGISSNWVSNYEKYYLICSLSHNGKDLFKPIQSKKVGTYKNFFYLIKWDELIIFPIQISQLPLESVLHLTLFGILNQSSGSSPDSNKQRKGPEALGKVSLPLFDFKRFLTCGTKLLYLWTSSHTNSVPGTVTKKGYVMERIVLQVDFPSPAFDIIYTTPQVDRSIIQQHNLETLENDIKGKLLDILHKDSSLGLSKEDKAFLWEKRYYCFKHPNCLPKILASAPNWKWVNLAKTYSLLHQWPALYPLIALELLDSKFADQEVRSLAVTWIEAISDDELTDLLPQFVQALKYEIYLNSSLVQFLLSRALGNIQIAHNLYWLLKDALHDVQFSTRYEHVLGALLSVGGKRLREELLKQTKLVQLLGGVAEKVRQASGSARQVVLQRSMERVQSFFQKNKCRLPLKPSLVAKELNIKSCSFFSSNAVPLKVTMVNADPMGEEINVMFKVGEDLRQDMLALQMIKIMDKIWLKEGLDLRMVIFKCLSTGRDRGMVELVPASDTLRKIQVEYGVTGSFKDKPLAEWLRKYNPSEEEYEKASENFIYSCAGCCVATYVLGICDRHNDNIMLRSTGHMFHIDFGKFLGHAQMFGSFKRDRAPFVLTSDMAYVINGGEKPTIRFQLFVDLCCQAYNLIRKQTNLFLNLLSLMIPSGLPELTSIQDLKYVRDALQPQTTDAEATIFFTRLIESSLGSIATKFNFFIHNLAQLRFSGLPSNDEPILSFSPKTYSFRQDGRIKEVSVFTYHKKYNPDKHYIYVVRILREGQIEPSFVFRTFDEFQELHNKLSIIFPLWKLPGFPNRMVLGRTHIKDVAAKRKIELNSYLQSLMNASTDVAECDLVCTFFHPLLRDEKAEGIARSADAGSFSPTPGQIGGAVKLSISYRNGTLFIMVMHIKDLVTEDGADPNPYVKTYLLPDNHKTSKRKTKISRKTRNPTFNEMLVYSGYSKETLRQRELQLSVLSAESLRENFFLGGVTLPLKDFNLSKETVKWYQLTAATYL
Sequence of CK1 γ2 (P78368 whole entry): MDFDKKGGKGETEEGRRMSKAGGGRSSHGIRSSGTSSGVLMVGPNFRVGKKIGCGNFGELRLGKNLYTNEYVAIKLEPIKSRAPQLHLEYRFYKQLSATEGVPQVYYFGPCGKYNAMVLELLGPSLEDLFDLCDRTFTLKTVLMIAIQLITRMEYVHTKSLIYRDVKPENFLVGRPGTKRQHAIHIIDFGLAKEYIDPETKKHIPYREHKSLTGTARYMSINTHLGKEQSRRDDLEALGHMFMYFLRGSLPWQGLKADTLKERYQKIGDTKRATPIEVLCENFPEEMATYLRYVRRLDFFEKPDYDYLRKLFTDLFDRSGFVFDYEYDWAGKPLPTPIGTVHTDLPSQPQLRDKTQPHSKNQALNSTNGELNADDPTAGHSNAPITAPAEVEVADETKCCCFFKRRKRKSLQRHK

CYP3A4 activity increase (iHeps [1]): 45 times
hepatocyte phenotype of treated iHeps (iHeps [3]; treatment from day 21, 9 days): more mature hepatocyte phenotypes
inhibition at 1 µM (CaMK1 δ): 6.7 to 18.4%
inhibition at 1 µM (PDGFRβ): 6.7 to 18.4%
inhibition at 1 µM (NEK2): 6.7 to 18.4%
inhibition at 1 µM (RSK3): 6.7 to 18.4%
inhibition at 1 µM (RSK4): 6.7 to 18.4%
inhibition at 1 µM (PI3KC2 α): 6.7 to 18.4%
inhibition at 1 µM (CLK1): 6.7 to 18.4%
inhibition at 1 µM (CK1 γ2): 6.7 to 18.4%
Structure (SMILES): Cc1ccc(Cl)cc1N(CC(=O)Nc1c(F)cccc1F)S(C)(=O)=O [FPH2, 2-(N-(5-chloro-2-methylphenyl)methylsulfonamido)-N-(2,6-difluorophenyl)acetamide]
Ki67 staining / number of Ki67-positive nuclei [2]: more elevated
increase in the area of albumin-positive colonies [2]: ≤ 3.5 fold
albumin staining (immunofluorescent) (iHeps [3]; treated iHeps): dramatic increases
differentiation of iPS-derived endothelial cells (nitric oxide) [4]: induce differentiation
albumin secretion during primary screening [5]: similar, but weaker effects
